In PMC6664396, “A golden opportunity: benzofuranone modifications of aurones and their influence on optical properties, toxicity, and potential as dyes” (Beilstein Journal of Organic Chemistry, 2019):

Legend:
[1] = test system: Hep G2 human liver cancer cells; assay: Hep G2 cytotoxicity assay (MTT); type: cell-based; set-up: Average % Inhibition: tested at 200 µM; details: for % Inhibition: Hep G2 MTT absorbance relative to vehicle; for Average % Inhibition: average of Triplicates 1-3 (T1, T2, T3), Hep G2 MTT; for Hep G2 % inhibition: 200 μM concentration of compound, 3 days incubation, MTT readout
Method: An initial screening of toxicity was conducted at a fairly high concentration (200 μM) on the present series of compounds using a standard HEP G2 inhibition assay (Table 1). Compared to a currently used yellow dye (tartrazine), the aurones are similar to more toxic. Within the aurone series, though, an interesting pair of trends can be observed. First, all hydroxylated aurones are comparatively more toxic, displaying >50% inhibition at 200 μM. Methyl groups are similarly mostly more toxic. For the halogens, however, location is fairly important, with the 6 or 7 position being much less toxic (similar to tartrazine) and dramatically better than the unsubstituted base compound 1, with the unexpected exception of 7-bromo compound 10. Whether this trend is general or not for aurone compounds is an interesting question for future study.
Hep G2 cytotoxicity assay
Hep G2 human liver cancer cells were cultured in phenol red Dulbecco’s
Modified Eagle Medium (DMEM) with 10% fetal bovine serum (FBS) and 1% Pen-strep (PSG) under 37°C and 5% CO2 atmospheric conditions. The cells were washed with phosphate buffered saline (PBS) and diluted with phenol red free DMEM to a concentration between 200,000 to 250,000 cells/mL. The cells we re distributed in a 96-well plate with each well containing 100 µL of the cell solution and were allowed to settle for 2 hours in the incubator. The cells were then treated with 200 µM of the aurones in DMSO and the known dyes in 10:90 (v:v) DMSO/ultrapure water in triplicates and were left in the incubator for 3 days. The vehicles were used as the negative controls (DMSO for the aurones and 10:90 DMSO:ultrapure water for the known dyes). 20 µL of 5 mg/mL MTT (3-(4,5-dimethylthiazol-2-yl)-2,5-diphenyltetrazolium bromide) was added to each well containing treated cells after the 3-day incubation period and was allowed to settle in the incubator for 3.5 more hours. Finally, the media was removed from the wells and replaced by 100 µL of DMSO to lyse the cells and dissolve the formazan crystals that were formed. The absorbance was then recorded on the SpectraMax M5 Multi -Mode Microplate Reader. The procedure was repeated two more times using different batches of cultured Hep G2 cells on different days. […]

[2] = UV–vis spectra in acetonitrile (λmax, extinction coefficient); type: physicochemical; set-up: λmax: unit: nm; details: for dissolution for ε determination: in CH3CN, printed in the ε column
Method: With the desired compounds in hand, their UV–visible spectra were recorded at concentrations between 29 and 44 μM in acetonitrile (Figure 3 and Table 1). While not all substituents were prepared at every position, some interesting trends were observed. Substitution at the 4-position whether halogen or hydroxy afforded essentially identical lambda maxima (390 nm), slighly red-shifted compared to the unsubstituted compound 1. On the other hand, hydroxy groups at the 6-position result in a significant blue shift of this lambda max by roughly 40 nm to around 338 nm, presumably due to their donating effect and conjugation with the carbonyl oxygen. […] On the other hand, substitution at the 7-position had virtually no effect, which is to be expected due to the lack of direct conjugation with the carbonyl as well as the only modest electronic effects of alkyl, chlorine, and bromine. In general, the substituent effects are all fairly modest and result in fairly moderate changes in the extinction coefficient (although hydroxy substitution does definitely increase this value by roughly 50%).

[3] = UV–vis spectra determined in CH3CN
[4] = supplement sheet Tabular ε Data, slope of linear equation, unit not given, in L mol⁻¹ cm⁻¹
[5] = supplement sheet Tabular ε Data, unit not given

Compound	% Inhibition ([1]; Triplicate 1)	% Inhibition ([1]; Triplicate 2)	% Inhibition ([1]; Triplicate 3)	Average % Inhibition [1]	ε ([2]; UV–vis in CH3CN, at λmax)	λmax [2, 3]	ε [2, 4]	λmax [2, 5]	Hep G2 % inhibition [1]	dissolution for ε determination [2]	dissolution for ε determination ([2]; listed as 6OH7Me)
Cc1ccc(/C=C2\Oc3cccc(Cl)c3C2=O)cc1 [Compound 4]	24.72%	7.19%	13.49%	15.13%	17129 L/mol/cm	390 nm	17129	390	–	–	–
Cc1ccc(/C=C2\Oc3ccc(C)cc3C2=O)cc1 [Compound 11]	79.75%	75.21%	87.68%	–	15470 L/mol/cm	390 nm	15470	390	80.88 ± 1.38%	–	–
Cc1ccc(/C=C2\Oc3cc(Cl)ccc3C2=O)cc1 [Compound 6]	19.67%	34.31%	21.23%	–	23187 L/mol/cm	378 nm	23187	378	25.07 ± 18.77%	–	–
Cc1ccc(C=C2Oc3ccc(Br)cc3C2=O)cc1 [Compound 8]	65.35%	37.11%	75.61%	–	15112 L/mol/cm	394 nm	15112	394	59.35 ± 1.25%	–	–
O=C([O-])C1=NN(c2ccc(S(=O)(=O)[O-])cc2)C(=O)C1N=Nc1ccc(S(=O)(=O)[O-])cc1.[Na+].[Na+].[Na+] (stereo not shown) [tartrazine, reference compound]	14.72%	3.80%	1.93%	–	–	–	–	–	6.81%	–	–
Cc1ccc(/C=C2\Oc3cc(Br)ccc3C2=O)cc1 [Compound 9]	77.38%	72.50%	75.78%	–	22435 L/mol/cm	378 nm	22435	378	75.22 ± 3.84%	–	–
Cc1ccc(/C=C2\Oc3c(ccc(O)c3C)C2=O)cc1 [Compound 17]	77.81%	74.71%	83.21%	–	–	336 nm	–	336	78.58 ± 7.11%	will not dissolve completely	will not dissolve
Alizarin Y [reference compound]	-50.46%	-60.58%	-52.30%	–	–	–	–	–	-54.45%	–	–
Cc1ccc(C=C2Oc3ccccc3C2=O)cc1 [Compound 1]	88.03%	81.21%	89.58%	–	20208 L/mol/cm	382 nm	20208	382	86.27 ± 1.09%	–	–
Cc1ccc(/C=C2\Oc3ccc(F)cc3C2=O)cc1 [Compound 2]	90.35%	81.77%	88.89%	–	17188 L/mol/cm	394 nm	17188	394	87.01 ± 0.56%	–	–
Cc1ccc(/C=C2\Oc3cccc(O)c3C2=O)cc1 [Compound 15]	62.56%	40.66%	58.91%	–	22664 L/mol/cm	390 nm	22664	390	54.04 ± 4.65%	–	–
Cc1ccc(/C=C2\Oc3c(Br)cccc3C2=O)cc1 [Compound 10]	8.16%	-1.79%	11.18%	5.85%	22250 L/mol/cm	390 nm	22250	390	–	–	–
Cc1ccc(/C=C2\Oc3c(C)cccc3C2=O)cc1 [Compound 13]	89.87%	82.08%	90.66%	–	18380 L/mol/cm	386 nm	18380	386	87.54 ± 1.61%	–	–
Cc1ccc(C=C2Oc3cc(O)cc(C)c3C2=O)cc1 [Compound 16]	77.36%	54.17%	71.74%	–	30445 L/mol/cm	338 nm	30445	338	67.76 ± 6.06%	–	–
Cc1ccc(/C=C2\Oc3cc(F)ccc3C2=O)cc1 [Compound 3]	5.64%	13.37%	-8.44%	–	24252 L/mol/cm	370 nm	24252	370	3.52 ± 3.39%	–	–
Cc1ccc(/C=C2\Oc3cc(O)ccc3C2=O)cc1 [Compound 14]	60.23%	53.07%	87.07%	–	33050 L/mol/cm	338 nm	33050	338	66.79 ± 3.04%	–	–
Cc1ccc(/C=C2\Oc3c(Cl)cccc3C2=O)cc1 [Compound 7]	7.01%	-3.78%	7.69%	–	17247 L/mol/cm	386 nm	17247	386	3.64 ± 3.64%	–	–
Cc1ccc(/C=C2\Oc3ccc(Cl)cc3C2=O)cc1 [Compound 5]	72.62%	63.25%	82.18%	–	16551 L/mol/cm	394 nm	16551	394	72.68 ± 2.77%	–	–
